Assay results from patent publication EP4810052A2, “HCRHR2 SELECTIVE POLYPEPTIDES” (Gubra A/S, priority 2023, dated 2026).
Like-named read-outs stand apart in the source and are kept apart here. Marks after values point to notes of the source that are not given here. Starred links: 1 amine or outer side, 2 acyl side, 3 side chain; linkers in the order of their positions; H or OH if unused. Non-standard residues stand in square brackets, D forms with d. Residues, ends and D or L forms follow the SMILES beside them. Groups on a side chain read outwards from the residue. *: point of attachment. C20 diacid = O=C(O)CCCCCCCCCCCCCCCCCCC(=O)*; γGlu = O=C(O)[C@H](CCC(=O)[*:2])N[*:1]; NMeI = CC[C@H](C)[C@H](NC)C(=O)O; Nle = CCCC[C@H](N)C(=O)O; AEEA = NCCOCCOCC(=O)O; Aib = CC(C)(N)C(=O)O

Key:
[1] = Chemical stability of purified peptides (RP-UHPLC main peak purity loss); format: physicochemical
Outline: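 Purity loss is the drop in RP-UHPLC main-peak area fraction (215 nm detection, C8 column at 50 °C) from time zero to day 14 and/or day 28 at 40 °C. Samples held roughly 1.0 mg/ml peptide in 50 mM phosphate, pH 7.5, with other pH targets also tested.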

PK in mice = format: in vivo; parameters: T½ / MRT: unit: h; details: for half-life: read-out: T½ (converted)
Experimental: (§1) Lean male NMRI/RjHan mice were obtained from JanVier (JanVier Labs, France) at 6 weeks of age. The animals were single housed under a 12/12 h dark-light cycle, light off at 3 PM. Room temperature was controlled to 22°C ± 1°C, with 60 % ± 20% humidity. Animals had ad libitum access to regular rodent chow (Altromin 1324, Brogaarden, Denmark) and tap water.
After 2 weeks of acclimatization, the animals were randomized into treatment groups (n=9 per group) based on body weight. Animals were dosed IV with one peptide and SC with another peptide (15 or 50 nmol/kg) Plasma samples were collected for PK analysis at times 0.17, 1, 3, 6, 24, 30, 48, 72 and 96 hours post dosing in a sparse sampling design with 3 mice per group per timepoint. Plasma samples were analyzed using LC-MSMS and PK parameters were estimated by Non-Compartmental Analysis (NCA).

[2] = Effect on acute food intake in mice; format: in vivo; details: single subcutaneous dose
Experimental: as §1, with “Male NMRI mice” for “Lean male NMRI/RjHan mice”, “at 5” for “at 6”, “were group-housed 4 mice pr. cage” for “were single housed”, “at 1” for “at 3”
Animals were transferred 5-7 days before the start of the study to a real-time food intake monitoring system, HM-2 system (MBRose, Denmark) to allow acclimatization to experimental conditions. As the animals were uniquely identified with microchips, each individual animal was identified by its microchip upon entry and exit from the food channel. Randomization of the mice for each study group (n=7-8) was based on body weight measured the day before the start of the study. A vehicle-treated group was included in each experiment. Six hours before the start of the dark phase, animals were fasted. One hour before the dark phase, animals were dosed once subcutaneously with test peptide. Food intake was reported hourly for a period of 72 hours. The percentage of food intake reduction was normalized to average food intake from the vehicle group. Statistical significance was evaluated using One-way analysis of variance with Dunnett's multiple comparison test. P < 0.05 was considered statistically significant.
Selected compounds were tested according to the general procedure on acute food intake in mice to determine the effect of a single subcutaneous dose on food intake in mice over 3 days.

[3] = pH 7.5, 40°C, 14 days, first value of cell
[4] = pH 7.5, 40°C, 28 days, second value of cell
[5] = male, NMRI/RjHan, in vivo, iv, Mouse, 50 nmol/kg i.v.
[6] = male, NMRI/RjHan, in vivo, sc, Mouse, 50 nmol/kg s.c.

Row | SMILES | Chemical stability at pH 7.5 after 14 days at 40°C (% degradation) [1, 3] | Chemical stability at pH 7.5 after 28 days at 40°C (% degradation) [1, 4] | Chemical stability at pH 7.5 after 14 days at 40°C (% degradation) ([1]; pH 7.5, 14 days, 40°C) | Chemical stability at pH 7.5 after 28 days at 40°C (% degradation) ([1]; pH 7.5, 28 days, 40°C) | MRT (PK in mice; Mouse) | T½ (PK in mice; Mouse) | bioavailability (PK in mice; male, NMRI, mouse, in vivo, sc) | clearance (PK in mice; [5]) | half-life (PK in mice; [5]) | Cmax (PK in mice; [6]) | Tmax (PK in mice; [6]) | half-life (PK in mice; [6]) | % FI compared to vehicle, 24 h post-dosing ([2]; 30 nmol/kg) | % FI compared to vehicle, 24 h post-dosing ([2]; 100 nmol/kg) | % FI compared to vehicle, 24 h post-dosing ([2]; 300 nmol/kg)
1 | CC[C@H](C)[C@H](N)C(=O)N[C@H](C(=O)N[C@@H](CC(C)C)C(=O)N[C@@H](CO)C(=O)N[C@@H](CC(C)C)C(=O)N[C@@H](CC(=O)O)C(=O)N[C@H](C(=O)N1CCC[C@H]1C(=O)N[C@H](C(=O)NCC(=O)N[C@@H](CC(C)C)C(=O)N[C@@H](CC(C)C)C(=O)N[C@@H](CCC(N)=O)C(=O)N[C@H](C(=O)N[C@@H](CC(C)C)C(=O)N[C@@H](CC(C)C)C(=O)N[C@@H](CCC(=O)O)C(=O)N[C@@H](CCC(N)=O)C(=O)N[C@@H](C)C(=O)N[C@@H](CCCNC(=N)N)C(=O)N[C@@H](C)C(=O)N[C@@H](CCCNC(=N)N)C(=O)N[C@@H](C)C(=O)N[C@@H](C)C(=O)N[C@@H](CCCNC(=N)N)C(=O)N[C@@H](CCC(=O)O)C(=O)N[C@@H](CCC(N)=O)C(=O)N[C@@H](C)C(=O)N[C@@H](CCCCNC(=O)COCCOCCNC(=O)COCCOCCNC(=O)CC[C@H](NC(=O)CC[C@H](NC(=O)CCCCCCCCCCCCCCCCCCC(=O)O)C(=O)O)C(=O)O)C(=O)N[C@H](C(=O)N[C@@H](CC(N)=O)C(=O)N[C@@H](C)C(=O)N[C@@H](CCC(=O)O)C(=O)N[C@H](C(=O)N[C@@H](CC(C)C)C(=O)N[C@@H](C)C(=O)N[C@@H](CCC(=O)O)C(=O)N[C@H](C(N)=O)C(C)C)[C@@H](C)CC)[C@@H](C)O)[C@@H](C)CC)[C@@H](C)CC)C(C)C)C(C)C [SEQ ID NO: 3] (H-IVLSLDVPIGLLQILLEQARARAAREQAK([AEEA-AEEA-γGlu-γGlu-C20 diacid])TNAEILAEV-NH2) | -6.1% | -15% | -6.1% | -15% | 17.5 | 13.5 | 43.1% | < 0.167 mL/min/kg | 13.5 h | 141 nM | 24 h | 11.4 h | 67.63*** % | 30.75*** % | 30.66*** %
2 | CC[C@H](C)[C@H](N)C(=O)N[C@H](C(=O)N[C@@H](CC(C)C)C(=O)N[C@@H](CO)C(=O)N[C@@H](CC(C)C)C(=O)N[C@@H](CC(=O)O)C(=O)N[C@H](C(=O)N1CCC[C@H]1C(=O)N[C@H](C(=O)NCC(=O)N[C@@H](CC(C)C)C(=O)N[C@@H](CC(C)C)C(=O)N[C@@H](CCC(N)=O)C(=O)N[C@H](C(=O)N[C@@H](CC(C)C)C(=O)N[C@@H](CC(C)C)C(=O)N[C@@H](CCC(=O)O)C(=O)N[C@@H](CCC(N)=O)C(=O)N[C@@H](C)C(=O)N[C@@H](CCCNC(=N)N)C(=O)N[C@@H](C)C(=O)N[C@@H](CCCNC(=N)N)C(=O)N[C@@H](C)C(=O)N[C@@H](C)C(=O)N[C@@H](CCCNC(=N)N)C(=O)N[C@@H](CCC(=O)O)C(=O)N[C@@H](CCC(N)=O)C(=O)N[C@@H](C)C(=O)N[C@H](C(=O)N[C@@H](CCCCNC(=O)COCCOCCNC(=O)COCCOCCNC(=O)CC[C@H](NC(=O)CC[C@H](NC(=O)CCCCCCCCCCCCCCCCCCC(=O)O)C(=O)O)C(=O)O)C(=O)N[C@@H](CC(N)=O)C(=O)N[C@@H](C)C(=O)N[C@@H](CCC(=O)O)C(=O)N[C@H](C(=O)N[C@@H](CC(C)C)C(=O)N[C@@H](C)C(=O)N[C@@H](CCC(=O)O)C(=O)N[C@H](C(N)=O)C(C)C)[C@@H](C)CC)[C@@H](C)O)[C@@H](C)CC)[C@@H](C)CC)C(C)C)C(C)C [SEQ ID NO: 4] (H-IVLSLDVPIGLLQILLEQARARAAREQATK([AEEA-AEEA-γGlu-γGlu-C20 diacid])NAEILAEV-NH2) | -1.3% | -3.9% | – | – | 18.2 | 14.8 | – | – | – | – | – | – | 63.41*** % | 19.33*** % | 18.14*** %
3 | CCCC[C@H](NC(=O)[C@@H](NC(=O)[C@H](CCC(=O)O)NC(=O)[C@H](C)NC(=O)[C@H](CC(N)=O)NC(=O)C(C)(C)NC(=O)[C@H](CCCCNC(=O)COCCOCCNC(=O)COCCOCCNC(=O)CC[C@H](NC(=O)CC[C@H](NC(=O)CCCCCCCCCCCCCCCCCCC(=O)O)C(=O)O)C(=O)O)NC(=O)[C@H](C)NC(=O)[C@H](CCC(N)=O)NC(=O)[C@H](CCC(=O)O)NC(=O)[C@H](CCCNC(=N)N)NC(=O)[C@H](C)NC(=O)[C@H](C)NC(=O)[C@H](CCCNC(=N)N)NC(=O)[C@H](C)NC(=O)[C@H](CCCNC(=N)N)NC(=O)[C@H](C)NC(=O)[C@H](CCC(N)=O)NC(=O)[C@H](CO)NC(=O)[C@H](CC(C)C)NC(=O)[C@H](CC(C)C)NC(=O)[C@@H](NC(=O)[C@H](CCC(N)=O)NC(=O)[C@H](CC(C)C)NC(=O)[C@H](CC(C)C)NC(=O)CNC(=O)[C@@H](NC(=O)[C@@H]1CCCN1C(=O)[C@@H](NC(=O)[C@H](CC(=O)O)NC(=O)[C@H](CC(C)C)NC(=O)[C@H](CO)NC(=O)[C@H](CC(C)C)NC(=O)[C@@H](NC(=O)[C@@H](NC)[C@@H](C)CC)C(C)C)C(C)C)[C@@H](C)CC)[C@@H](C)CC)[C@@H](C)CC)C(=O)N[C@@H](C)C(=O)N[C@@H](CCC(=O)O)C(=O)N[C@H](C(N)=O)C(C)C [compound 132] (H-[NMeI]VLSLDVPIGLLQILLSQARARAAREQAK([AEEA-AEEA-γGlu-γGlu-C20 diacid])[Aib]NAEI[Nle]AEV-NH2) | – | – | -1.6% | -1.3% | 16 | 11.2 | – | – | – | – | – | – | 46.64*** % | 18.5*** % | 20.04*** %
